In one series the test system is IL-6. The experiment in a line: Cytokine expression analysis, IL-6 mRNA in CV-A9-infected RD cells. The following applies: Homo sapiens, 24 h, read-out: inhibition of CV-A9-induced IL-6 upregulation.
The test system of series [1] is CV-A9. The experiment in a line: Primary screening for antiviral compounds by cytopathic effects (CPEs). The following applies: 10 μM, RD cells, 36 h.p.i. In general terms: Protection from cytopathic effect is a common read-out in antiviral testing.
In a further series the test system is Echo-11. The experiment in a line: EC50 evaluation against Echo-11 in RD cells. It is filed as cell-based.
For series [2], the system named is CV-A9. The experiment in a line: EC50 evaluation against CV-A9 in Huh-7 cells. The series is classed as cell-based.
The target in another series is CV-A9 3D^pol (Coxsackievirus A9, UniProt P21404). The experiment in a line: In vitro RNA primer extension assay using 3D^pol.
Sequence of CV-A9 3D^pol (P21404 1740-2201): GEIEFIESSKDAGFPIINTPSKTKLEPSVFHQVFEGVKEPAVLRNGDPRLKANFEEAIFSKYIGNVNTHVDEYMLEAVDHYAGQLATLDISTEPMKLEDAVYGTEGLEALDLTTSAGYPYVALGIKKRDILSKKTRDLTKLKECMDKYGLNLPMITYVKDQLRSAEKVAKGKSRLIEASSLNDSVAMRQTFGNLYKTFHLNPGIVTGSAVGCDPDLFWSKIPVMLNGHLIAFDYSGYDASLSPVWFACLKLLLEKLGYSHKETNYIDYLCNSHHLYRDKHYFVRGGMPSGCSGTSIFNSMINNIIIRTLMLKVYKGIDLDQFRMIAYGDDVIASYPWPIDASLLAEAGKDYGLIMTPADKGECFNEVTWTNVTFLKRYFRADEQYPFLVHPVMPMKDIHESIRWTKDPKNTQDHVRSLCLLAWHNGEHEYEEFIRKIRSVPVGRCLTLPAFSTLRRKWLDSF
In a further series the test system is COX-2. The experiment in a line: Cytokine expression analysis, COX-2 mRNA in CV-A9-infected RD cells. It is filed as cell-based, Human. The following applies: MOI 0.001, 24 h. Here is the method:
(§1) Figure S13. Effect of bioactive compounds on the expression of MCP-1 and COX-
(§2) 2 induced by CV-A9 infection.
(§3) MCP-1 (a) and COX-2 (b) mRNA levels in RD cells were quantified by RT-qPCR at
(§4) 24 h.p.i following CV-A9 infection (MOI=0.001) and treatment with 50 μM velutin,
(§5) isorhamnetin, or (−)-epicatechin gallate. Representative curves of at least two

The next series has as its system IRES. The following applies: 293T cells, Fluc/Rluc.
A short description of series [3]: CC50 evaluation, CellTiter-Blue cell viability assay, RD cells. It is filed as cell-based. The following applies: human, RD cells (human rhabdomyosarcoma), parallel to CV-A9 assay.
The subject of another series is CV-A9 2A^pro. The experiment in a line: FRET-based protease assay, CV-A9 2A protease. The series is classed as biochemical. The following applies: pre-incubated 30 min.
Series [4] deals with CV-A9. The experiment in a line: Drug combination, Zero Interaction Potency (ZIP) model, SynergyFinder, CV-A9-infected RD cells. The following applies: CV-A9 MOI 0.001, RD cells; -10 to 10 additive.
Series [5] concerns CV-A9. Kind of series: EC50 evaluation against CV-A9 in RD cells (viral nucleic acid load). It is filed as cell-based. The following applies: read-out: EC50 against CV-A9.
A further series relates to PV1. Kind of series: microbe, parasite or virus in culture. The series is classed as cell-based, poliovirus 1. The following applies: Enterovirus C, RD, read-out: EC50 against PV1.
The target in another series is CV-B3 3C^pro (Coxsackievirus B3, UniProt P03313). The experiment in a line: FRET-based protease assay, CV-B3 3C protease. The following applies: 1 mM. The series is classed as biochemical.
Sequence of CV-B3 3C^pro (P03313 1541-1723): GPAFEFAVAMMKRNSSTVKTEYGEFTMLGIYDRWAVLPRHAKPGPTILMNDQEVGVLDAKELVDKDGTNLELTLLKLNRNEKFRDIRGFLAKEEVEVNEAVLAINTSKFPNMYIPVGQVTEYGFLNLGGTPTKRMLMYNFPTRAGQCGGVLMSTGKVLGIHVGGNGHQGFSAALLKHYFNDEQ
The nature of series [6]: in vitro. The following applies: human.
Series [7] is described as follows: in vitro. The following applies: African green monkey.
The test system of series [8] is EV-A71. The experiment in a line: microbe, parasite or virus in culture. The series is classed as cell-based. The following applies: Enterovirus A, EVA71, RD, read-out: EC50 against EV-A71.
The next series concerns CV-B3. The experiment in a line: EC50 evaluation against CV-B3 in Vero E6 cells (viral nucleic acid load). The series is classed as cell-based.
The next series concerns TNF-α. Kind of series: Cytokine expression analysis, TNF-α mRNA in CV-A9-infected RD cells.
Another series deals with MCP-1. The experiment in a line: Cytokine expression analysis, MCP-1 mRNA in CV-A9-infected RD cells. The following applies: MOI 0.001, 24 h. It is filed as cell-based, Human. The method, then: as §1, §2, §3, §4, §5
The subject of series [9] is CV-A9. The experiment in a line: Time-of-addition assay, CV-A9. The following applies: 25 μM, RD cells, MOI 0.001. The series is classed as cell-based.
For series [10], the system named is CV-A9. The experiment in a line: organism not typed. The series is classed as cell-based. The following applies: for inhibition at 25 µM: RD.
For series [11], the system named is EV-A71. Kind of series: Antiviral evaluation in vivo, EV-A71-infected BALB/c young mice (tissue viral load, H&E). The following applies: same dosing.
Series [12] deals with CV-A9. Kind of series: Post-entry inhibitory effect (viral RNA kinetics), CV-A9 in RD cells. The following applies: 25 μM added at 2 h post-infection, cells and supernatants. The series is classed as cell-based.
The mark [13] stands for this setting: read-out: inhibition of CV-A9 attachment.
Where [14] appears, read: Huh-7, read-out: EC50 against CV-A9.
Where [15] appears, read: Vero C1008, read-out: EC50 against CV-B3.

Like-named read-outs stand apart in the source and are kept apart here.

As a reminder, the inhibition is the share of the control response that was lost under treatment. For orientation: EC50 means the concentration giving half of the maximal effect.

Regarding `COc1cc(-c2oc3cc(O)cc(O)c3c(=O)c2O)ccc1O` [isorhamnetin], in the series on IL-6, the inhibition at 50 µM was about 60%. Also, the “primary screening result by CV-A9-induced CPEs” value (“primary screening result” for short) in the series with CV-A9 [1] is reported as “identified as CV-A9 inhibitors”. In addition, the EC50 in the series on Echo-11 (MOI 0.005, read-out: EC50 against Echo-11) was determined as 20.6 µM; with CV-A9 [2] (Huh-7 cells, read-out: EC50 against CV-A9), 9.07 µM; with CV-A9 [5] (RD cells, MOI 0.001), 2.23 µM; in the series on PV1, 13.9 µM; with EV-A71 [8], 14.6 µM; in the series on CV-B3 (Vero C1008, MOI 0.001, read-out: EC50 against CV-B3) it was 1.62 µM. The “inhibitory activity against 3D^pol” value at CV-A9 3D^pol is recorded as “no inhibitory activity”. The “inhibition of CV-A9-induced COX-2 upregulation” value in the series with COX-2 (50 μM) is “without significant effects”. Also, the “inhibitory activity against IRES elements” value in the series with IRES is recorded as “no inhibitory activity”. Further, the CC50 (in [3]; in “in vitro [6]”; in the series “in vitro [7]”) was over 100 µM each time. In addition, the “inhibitory activity against 2A^pro” value in the series with CV-A9 2A^pro is on record as “no inhibitory activity”. The “ZIP score of the combination with velutin” value (from here on “ZIP score of the combination”) in the series on CV-A9 [4] is 3.126. Moreover, the inhibition at 1000 µM against CV-B3 3C^pro was about 50%. Also, the “inhibition of CV-A9-induced TNF-α upregulation” value in the series with TNF-α (50 μM, RD cells, MOI 0.001, 24 h) is reported as “without significant effects”. For the same molecule, in the series with MCP-1 (50 μM), the “inhibition of CV-A9-induced MCP-1 upregulation” value is on record as “without significant effects”. Also, the “phase-specific activity, time-of-addition, CV-A9” value (shortened to “phase-specific activity”) in the series with CV-A9 [9] was “pan-stage suppression spanning both entry and post-entry phases”.

With `Oc1cccc(O)c1O` [pyrogallol], the “primary screening result” value in the series on CV-A9 [1] is listed as “identified as CV-A9 inhibitors”. In the series on CV-A9 [10] (25 µM), the “inhibition of CV-A9 internalization” value was “without affecting cellular internalization”. The inhibition at 25 µM in the series on CV-A9 [10] (setting [13]) was 32.4%. Further, the EC50 with Echo-11 (read-out: EC50 against Echo-11) was over 100 µM; in the series with CV-A9 [2] (setting [14]), 8.83 µM; with CV-A9 [5] (RD), 10.5 µM; with PV1, over 100 µM; with EV-A71 [8], over 100 µM; in the series with CV-B3 (setting [15]) it was 1.78 µM. In addition, the CC50 (in series [3]; in the series “in vitro [6]”; in “in vitro [7]”) was over 100 µM each time. The “ZIP score of the combination” value in the series on CV-A9 [4] stood at 1.684. Besides, in the series on CV-A9 [9], the “phase-specific activity” value was “exclusively targeted viral attachment”.

Regarding `O=C(O[C@@H]1Cc2c(O)cc(O)cc2O[C@@H]1c1ccc(O)c(O)c1)c1cc(O)c(O)c(O)c1` [(−)-epicatechin gallate], the “primary screening result” value with CV-A9 [1] was “identified as CV-A9 inhibitors”. The “inhibitory activity against 3D^pol” value against CV-A9 3D^pol was “no inhibitory activity”. The “inhibitory activity against IRES elements” value in the series with IRES is recorded as “no inhibitory activity”. Also, in the series with CV-A9 2A^pro, the “inhibitory activity against 2A^pro” value is listed as “no inhibitory activity”. The “ZIP score of the combination” value in the series with CV-A9 [4] worked out at 1.443. Besides, at CV-B3 3C^pro, the “inhibition of CV-B3 3C^pro protease activity” value is listed as “about 50%”. For the same molecule, the CC50 in the series with Huh-7 cells and in the series on Vero E6 cells was over 100 µM throughout. Further, in the series with CV-A9 [9], the “phase-specific activity” value is “pan-stage suppression spanning both entry and post-entry phases”.

With `COc1cc(O)c2c(=O)cc(-c3ccc(O)c(OC)c3)oc2c1` [velutin], the inhibition at 50 µM with IL-6 is 70 to 80%; with COX-2 (Homo sapiens, read-out: inhibition of CV-A9-induced COX-2 upregulation) it was 70 to 80%; in the series on TNF-α (Homo sapiens, RD, 24 h, read-out: inhibition of CV-A9-induced TNF-α upregulation) it was 70 to 80%; in the series on MCP-1 (Homo sapiens, read-out: inhibition of CV-A9-induced MCP-1 upregulation), 20%. In the series on CV-A9 [1], the “primary screening result” value is given as “identified as CV-A9 inhibitors”. The inhibition at 25 µM in the series with CV-A9 [10] (setting [13]) stood at 40.5%; in the series on CV-A9 [10] (read-out: inhibition of CV-A9 internalization), 38.2%. Besides, the EC50 is 0.69 µM in the series with Echo-11 (read-out: EC50 against Echo-11); 3.7 µM in the series on CV-A9 [2] (setting [14]); 0.76 µM in the series on CV-A9 [5] (RD); 0.96 µM in the series with PV1; 2.18 µM with EV-A71 [8]; 2.26 µM in the series on CV-B3 (setting [15]). The “inhibitory activity against 3D^pol” value at CV-A9 3D^pol was “no inhibitory activity”. Further, in the series on IRES, the “inhibitory activity against IRES elements” value is reported as “no inhibitory activity”. In addition, the CC50 (in series [3]; in “in vitro [6]”; in “in vitro [7]”) was over 100 µM in each case. Moreover, the “inhibitory activity against 2A^pro” value with CV-A9 2A^pro was “no inhibitory activity”. In addition, the “intestinal histopathology (H&E)” value in the series with EV-A71 [11] is reported as “no hydropic degeneration of the epithelial cells”. Further, the “post-entry viral load kinetics, CV-A9” value in the series on CV-A9 [12] was “significantly suppressed intra- and extracellular viral proliferation”. Further, the “phase-specific activity” value with CV-A9 [9] is “pan-stage suppression spanning both entry and post-entry phases”.

`Nc1ccc(C(=O)Nc2cccc(-c3nc(N4CCOCC4)c4oc5ncccc5c4n3)c2)cn1` [YM-201636, reference compound]: the “intestinal histopathology (H&E)” value in the series with EV-A71 [11] is given as “partial shedding of intestinal epithelial cells”.

The values above are taken from PMC12650729 (Biology, 2025).
